Values quoted from earlier work in patent US12599665B2, “Gene fusions for control of genetically modified cells” (A2 Biotherapeutics, Inc., priority 2020, dated 2026).

Experiments:
[1] = biological target: T1, Peroxisome proliferator-activated receptor-γ (NR1C3) (Homo sapiens, UniProt P37231); conditions: antagonist, Table 2, cited from earlier work
T1 sequence (P37231 1-505): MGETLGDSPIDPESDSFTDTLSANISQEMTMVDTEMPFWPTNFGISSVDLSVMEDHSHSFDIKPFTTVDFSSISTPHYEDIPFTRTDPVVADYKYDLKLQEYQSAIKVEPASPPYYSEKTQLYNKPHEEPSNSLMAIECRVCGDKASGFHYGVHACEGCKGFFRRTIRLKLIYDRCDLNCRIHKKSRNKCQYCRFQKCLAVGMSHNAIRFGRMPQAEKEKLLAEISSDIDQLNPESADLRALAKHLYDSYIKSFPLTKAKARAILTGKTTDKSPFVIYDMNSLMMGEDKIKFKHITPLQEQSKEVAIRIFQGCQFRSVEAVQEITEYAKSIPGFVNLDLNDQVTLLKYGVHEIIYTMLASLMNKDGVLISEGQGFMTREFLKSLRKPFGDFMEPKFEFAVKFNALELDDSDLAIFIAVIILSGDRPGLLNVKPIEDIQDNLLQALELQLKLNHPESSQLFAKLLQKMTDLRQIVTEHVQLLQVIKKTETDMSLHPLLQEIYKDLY

[2] = biological target: Estrogen receptor-β (NR3A2) (Homo sapiens, UniProt Q92731); conditions: antagonist, Table 2; cited from earlier work
[3] = biological target: T2, Vitamin D receptor (Homo sapiens, UniProt P11473); conditions: antagonist, Table 2; cited from earlier work
T2 sequence (P11473 1-427): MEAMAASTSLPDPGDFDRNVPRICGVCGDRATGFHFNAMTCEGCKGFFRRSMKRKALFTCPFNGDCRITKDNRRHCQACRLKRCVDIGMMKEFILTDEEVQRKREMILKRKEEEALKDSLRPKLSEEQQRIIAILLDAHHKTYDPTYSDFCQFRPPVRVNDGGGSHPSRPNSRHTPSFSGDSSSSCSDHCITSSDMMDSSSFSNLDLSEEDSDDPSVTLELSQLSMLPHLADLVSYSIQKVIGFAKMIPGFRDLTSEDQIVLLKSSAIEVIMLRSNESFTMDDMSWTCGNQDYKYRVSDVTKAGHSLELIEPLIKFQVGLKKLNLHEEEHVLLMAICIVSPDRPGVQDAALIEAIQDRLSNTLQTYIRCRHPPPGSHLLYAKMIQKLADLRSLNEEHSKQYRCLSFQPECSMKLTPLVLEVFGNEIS

[4] = biological target: T3, Rev-Erb-α (NR1D1) (Homo sapiens, UniProt P20393); conditions: antagonist, Table 2; cited from earlier work
T3 sequence (P20393 1-614): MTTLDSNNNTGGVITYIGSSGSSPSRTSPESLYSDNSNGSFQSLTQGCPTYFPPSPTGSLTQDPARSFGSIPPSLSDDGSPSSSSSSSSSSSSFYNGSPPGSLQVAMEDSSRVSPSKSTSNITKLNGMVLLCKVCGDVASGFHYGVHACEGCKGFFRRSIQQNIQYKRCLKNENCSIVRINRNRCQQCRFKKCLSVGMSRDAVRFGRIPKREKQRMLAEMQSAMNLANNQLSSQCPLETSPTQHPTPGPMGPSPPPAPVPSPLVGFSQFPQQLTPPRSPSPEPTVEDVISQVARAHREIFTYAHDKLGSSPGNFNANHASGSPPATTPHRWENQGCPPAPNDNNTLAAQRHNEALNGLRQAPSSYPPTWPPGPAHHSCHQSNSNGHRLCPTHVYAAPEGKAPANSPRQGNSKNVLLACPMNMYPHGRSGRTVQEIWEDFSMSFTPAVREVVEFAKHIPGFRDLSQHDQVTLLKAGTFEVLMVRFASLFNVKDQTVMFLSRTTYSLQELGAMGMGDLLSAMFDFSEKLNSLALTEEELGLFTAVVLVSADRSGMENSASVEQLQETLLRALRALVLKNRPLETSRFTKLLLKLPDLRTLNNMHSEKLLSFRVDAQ

[5] = biological target: T4, Vitamin D receptor (Gallus gallus, UniProt O42392); conditions: antagonist, Table 2; Chicken; cited from earlier work
T4 sequence (O42392 1-451): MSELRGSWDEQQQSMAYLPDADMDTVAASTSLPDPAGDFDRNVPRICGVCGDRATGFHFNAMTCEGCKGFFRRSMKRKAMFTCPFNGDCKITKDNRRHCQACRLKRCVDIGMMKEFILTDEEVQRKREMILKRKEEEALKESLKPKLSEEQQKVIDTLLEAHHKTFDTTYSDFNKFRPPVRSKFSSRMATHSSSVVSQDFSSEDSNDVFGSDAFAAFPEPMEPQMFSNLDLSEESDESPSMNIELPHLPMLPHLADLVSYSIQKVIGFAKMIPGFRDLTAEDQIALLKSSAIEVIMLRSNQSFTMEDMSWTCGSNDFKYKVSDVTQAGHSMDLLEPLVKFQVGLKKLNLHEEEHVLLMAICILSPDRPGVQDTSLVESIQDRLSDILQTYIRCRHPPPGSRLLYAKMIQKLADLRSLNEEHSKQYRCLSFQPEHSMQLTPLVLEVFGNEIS

[6] = biological target: T5, Peroxisome proliferator-activated receptor-α (NR1C1) (Homo sapiens, UniProt Q07869); conditions: antagonist, Table 2; cited from earlier work
T5 sequence (Q07869 1-468): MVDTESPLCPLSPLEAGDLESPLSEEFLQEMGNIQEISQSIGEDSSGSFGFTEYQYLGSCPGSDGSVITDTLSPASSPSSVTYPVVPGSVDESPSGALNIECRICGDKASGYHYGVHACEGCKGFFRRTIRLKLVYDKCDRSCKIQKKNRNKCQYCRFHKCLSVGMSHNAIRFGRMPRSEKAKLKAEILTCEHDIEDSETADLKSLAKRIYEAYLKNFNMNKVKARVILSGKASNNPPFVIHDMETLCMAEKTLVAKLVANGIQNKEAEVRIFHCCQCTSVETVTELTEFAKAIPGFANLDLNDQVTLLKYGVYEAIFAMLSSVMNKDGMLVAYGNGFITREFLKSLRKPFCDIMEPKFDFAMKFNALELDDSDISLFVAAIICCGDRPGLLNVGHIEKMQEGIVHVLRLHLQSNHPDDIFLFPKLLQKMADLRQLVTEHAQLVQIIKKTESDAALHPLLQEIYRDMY

[7] = biological target: T6, Glucocorticoid receptor (NR3C1) (Homo sapiens, UniProt P04150); conditions: antagonist, Table 2; cited from earlier work
T6 sequence (P04150 1-777): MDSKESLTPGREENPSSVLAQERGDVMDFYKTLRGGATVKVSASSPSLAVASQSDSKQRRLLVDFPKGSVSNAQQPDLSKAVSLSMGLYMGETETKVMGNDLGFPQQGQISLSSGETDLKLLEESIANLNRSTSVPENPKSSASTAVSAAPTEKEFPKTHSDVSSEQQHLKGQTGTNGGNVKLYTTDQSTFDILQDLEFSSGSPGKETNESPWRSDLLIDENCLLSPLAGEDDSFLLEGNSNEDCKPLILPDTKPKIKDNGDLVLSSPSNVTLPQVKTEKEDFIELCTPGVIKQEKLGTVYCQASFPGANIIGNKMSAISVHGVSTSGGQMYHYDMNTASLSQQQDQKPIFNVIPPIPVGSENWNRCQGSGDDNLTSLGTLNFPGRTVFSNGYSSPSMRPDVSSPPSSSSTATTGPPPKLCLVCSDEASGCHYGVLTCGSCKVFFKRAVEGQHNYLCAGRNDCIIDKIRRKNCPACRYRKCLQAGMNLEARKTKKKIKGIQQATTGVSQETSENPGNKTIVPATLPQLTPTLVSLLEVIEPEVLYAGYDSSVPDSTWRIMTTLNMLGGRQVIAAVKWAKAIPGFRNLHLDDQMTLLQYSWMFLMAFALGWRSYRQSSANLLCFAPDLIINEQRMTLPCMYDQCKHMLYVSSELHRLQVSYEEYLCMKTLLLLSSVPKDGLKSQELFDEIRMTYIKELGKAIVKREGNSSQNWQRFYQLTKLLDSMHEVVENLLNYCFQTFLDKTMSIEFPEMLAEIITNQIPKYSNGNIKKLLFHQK

[8] = biological target: T7, Mineralocorticoid receptor (NR3C2) (Homo sapiens, UniProt P08235); conditions: antagonist, Table 2; cited from earlier work
T7 sequence (P08235 1-984): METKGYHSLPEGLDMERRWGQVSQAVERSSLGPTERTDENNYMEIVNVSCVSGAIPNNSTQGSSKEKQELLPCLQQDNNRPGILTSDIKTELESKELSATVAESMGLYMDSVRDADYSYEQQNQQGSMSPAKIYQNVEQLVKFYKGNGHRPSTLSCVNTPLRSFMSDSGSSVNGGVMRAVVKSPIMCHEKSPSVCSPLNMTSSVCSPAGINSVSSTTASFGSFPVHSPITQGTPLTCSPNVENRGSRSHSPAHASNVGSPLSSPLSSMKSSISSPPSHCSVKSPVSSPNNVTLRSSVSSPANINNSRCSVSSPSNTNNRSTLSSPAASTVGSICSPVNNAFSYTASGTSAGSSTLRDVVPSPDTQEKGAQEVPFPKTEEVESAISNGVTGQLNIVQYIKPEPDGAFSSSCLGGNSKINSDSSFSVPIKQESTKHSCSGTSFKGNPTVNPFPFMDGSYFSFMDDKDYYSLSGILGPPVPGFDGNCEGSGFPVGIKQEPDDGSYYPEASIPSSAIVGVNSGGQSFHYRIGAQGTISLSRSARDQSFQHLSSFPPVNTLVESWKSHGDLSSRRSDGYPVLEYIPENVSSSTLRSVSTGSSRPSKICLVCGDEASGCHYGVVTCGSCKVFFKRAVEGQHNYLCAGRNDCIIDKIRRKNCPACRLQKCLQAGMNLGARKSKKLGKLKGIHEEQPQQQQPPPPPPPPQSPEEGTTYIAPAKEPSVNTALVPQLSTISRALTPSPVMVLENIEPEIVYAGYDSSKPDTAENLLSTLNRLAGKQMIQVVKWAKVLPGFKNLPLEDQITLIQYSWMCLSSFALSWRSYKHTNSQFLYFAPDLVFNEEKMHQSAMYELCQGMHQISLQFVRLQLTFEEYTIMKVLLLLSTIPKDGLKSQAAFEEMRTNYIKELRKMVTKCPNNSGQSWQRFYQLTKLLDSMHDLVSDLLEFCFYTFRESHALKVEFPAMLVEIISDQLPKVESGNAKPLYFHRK

[9] = biological target: T8, ER(T2) (human ER LBD G400V/M543A/L544A) (Homo sapiens, UniProt P03372, G400V/L544A/M543A); conditions: ER(T2) vs ER(T); cited from earlier work
T8 construct: a human ER LBD and comprising point mutations G400V/M543A/L544A, which is termed ER(T2)
T8 sequence (P03372 311-547 G400V/M543A/L544A limits assumed): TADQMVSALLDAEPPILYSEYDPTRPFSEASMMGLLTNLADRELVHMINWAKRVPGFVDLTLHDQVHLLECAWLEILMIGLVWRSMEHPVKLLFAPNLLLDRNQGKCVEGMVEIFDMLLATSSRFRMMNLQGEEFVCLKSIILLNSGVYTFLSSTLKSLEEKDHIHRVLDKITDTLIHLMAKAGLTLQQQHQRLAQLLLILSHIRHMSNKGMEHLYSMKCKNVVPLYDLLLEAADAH

Chain of Estrogen receptor-β (NR3A2) (Q92731 whole entry): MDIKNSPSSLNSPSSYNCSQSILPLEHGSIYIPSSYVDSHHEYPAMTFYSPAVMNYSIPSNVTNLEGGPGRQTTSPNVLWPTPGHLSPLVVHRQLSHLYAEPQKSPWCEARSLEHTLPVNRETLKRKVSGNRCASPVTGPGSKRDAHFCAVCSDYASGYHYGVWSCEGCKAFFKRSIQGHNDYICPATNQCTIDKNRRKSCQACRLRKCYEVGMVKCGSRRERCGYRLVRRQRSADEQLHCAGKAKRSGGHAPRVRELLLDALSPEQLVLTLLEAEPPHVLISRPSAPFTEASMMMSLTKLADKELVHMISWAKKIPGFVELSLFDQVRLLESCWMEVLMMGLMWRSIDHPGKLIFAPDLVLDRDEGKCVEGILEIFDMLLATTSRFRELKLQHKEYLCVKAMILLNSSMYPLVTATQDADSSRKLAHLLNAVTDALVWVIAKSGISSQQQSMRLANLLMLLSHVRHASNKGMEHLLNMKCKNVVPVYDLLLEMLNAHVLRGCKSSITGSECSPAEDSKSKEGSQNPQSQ

Q: For `O=C(Nc1ccccc1)c1cc([N+](=O)[O-])ccc1Cl` [GW9662], which pIC50 ([1]; Irreversible inhibition) is on record?
A: The pIC50 was “(pIC50 8.1)”.

Q: Which pKi [2] does the source give for `Oc1ccc(-c2c(-c3ccccc3)nn3c(C(F)(F)F)cc(C(F)(F)F)nc23)cc1` [PHTPP] here?
A: The pKi was “(pKi 6.9) (CAS”.

Q: With `CC[C@@H]1Cc2cc(O)ccc2C2=C1c1ccc(O)cc1C[C@H]2CC` [R,R-THC] as the compound, how does the pKi [2] read?
A: Its pKi is 8.4) (CAS.

Q: For `C=C1/C(=C\C=C2/CCC[C@]3(C)[C@@H]([C@H](C)/C=C/[C@@H](O)C4(C(=O)OCCCC)CC4)CC[C@@H]23)C[C@@H](O)C[C@@H]1O` [ZK159222], which pIC50 [3] is on record?
A: The pIC50 was “(pIC50 7.5)”.

Q: For `CCOC(=O)C1Cc2ccccc2CN1C(=O)c1ccc(SC)s1` (stereo not drawn) [SR8278], which pIC50 [4] is on record?
A: The pIC50 was 6.5) (CAS.

Q: For `C=C1C[C@H](C[C@@H](C)[C@H]2CC[C@H]3/C(=C/C=C4/C[C@@H](O)C[C@H](O)C4=C)CCC[C@]23C)OC1=O` [TEI-9647], which pIC50 [5] is on record?
A: Its pIC50 is “(pIC50 8.2)”.

Q: For `COC(=O)[C@]12CCC(C)(C)C[C@H]1[C@H]1C(=O)C=C3[C@@]4(C)C=C(C#N)C(=O)C(C)(C)[C@@H]4CC[C@@]3(C)[C@]1(C)CC2` [CDDO-Me, Bardoxolone methyl], which pKi [1] is on record?
A: The pKi was 6.9).

Q: For `CCC(=O)NC[C@H](Cc1ccc(OCCc2nc(-c3ccccc3)oc2C)cc1)N/C(C)=C\C(=O)c1ccc(C(F)(F)F)cc1` [GW6471], which pIC50 [6] is on record?
A: Its pIC50 is “(pIC50 6.6)”.

Q: Which results are given for `CN(C)c1ccc([C@H]2C[C@]3(C)[C@@H](CC[C@]3(O)CCCO)[C@@H]3CCC4=CC(=O)CCC4=C32)cc1` [onapristone]?
A: pIC50 [7]: (pIC50 7.6),; pIC50 [8]: (pIC50 6.3),

Q: With `CCOc1ncc(C)c2c1[C@H](c1ccc(C#N)cc1OC)C(C(N)=O)=C(C)N2` [finerenone] as the compound, how does the pIC50 [8] read?
A: Its pIC50 is “(pIC50 7.7),”.

Q: With 4-hydroxytamoxifen [4-OH-Tamoxifen] as the compound, how does the “sensitivity of ER(T2) to 4-OH-Tamoxifen relative to the ER(T) mutant” value [9] read?
A: Its value is “roughly 10 fold”.
